Key:
C57BL/6 mice = assay: Glycemia and dietary intake in C57BL/6 mice; assay type: in vivo, mouse; conditions: 1 week
Source text: The mean glycemic values at the beginning and end of the experiment are represented for each group (n=3) with their standard deviations.

[1] = 2:1 complex (2 molecules of metformin for 1 of glycine), aqueous solution
insulin receptor (IRβ) = conditions: 10 mM, 3 h
Source text: Next, cells were washed with PBS and their membrane proteins were extracted.

wild type controls (WT) = conditions: 100 mg/kg/day, 8 weeks, fasting
Method: (§1) At the 8-week treatment time point, there were 8 mice in each of the WT groups, 6 mice in the KO IRS2 untreated control group, 7 mice in the KO IRS2 SLN1 treated group, and 8 mice in the KO SLN2 treated group. Blood was collected at the time of sacrifice and used to measure TG under fasting conditions. […] Statistical differences between the experimental groups shown in FIG. 21 were assessed by Student's T test. P value of <0.05 is indicated by *.

GPBP = GPBP (Homo sapiens, UniProt Q9Y5P4); conditions: 1 mM, FIG. 6A
C2C12 myotubes = assay: Glucose concentration of C2C12 myotube cultures in M1 macrophage conditioned media; assay type: cell-based, mouse; conditions: macrophages treated with 10 mM for 2 h, then LPS/IFNγ 16 h
Method: There is considerable evidence showing that inflammation and hyperglycemia are interconnected: inflammation induces hyperglycemia and reciprocally hyperglycemia induces inflammation with the molecular bases not elucidated yet. To explore the participation of GPBP, glucose intake under normoglycemic conditions with conditioned media generated by macrophages differentiated to a proinflammatory M1 phenotype was monitored.
[…]. The glucose concentration of the myotube cultures was determined at different times with Glucocard (Arkray). The controls used were the C2C12 cultured with media conditioned with no stimulated macrophages (Cells) or with M1 conditioned media (M1). The initial glucose levels (time 0) were used as a reference (100%) in each series.

IRS2−/− (KO) mice = assay: Fasting glycemia and insulinemia in female IRS2−/− mice; assay type: in vivo, mouse; conditions: 4 weeks
Source text: Insulin resistance characterizes type 2 diabetes, obesity, and the metabolic syndrome. Thus, insulin sensitivity is a major therapeutic objective for these metabolic diseases. Insulin receptor substrate (IRS) proteins regulate the physiological actions of insulin upon binding to the receptor. Specific deletion of IRS2 in mice produces diabetes due to a developmental reduction of the pancreatic β-cell mass and the inability of existing β-cells to expand in response to peripheral insulin resistance. Additionally, IRS2-deficiency in mice causes hepatic insulin resistance concurrent with failed suppression of hepatic glucose production. While male IRS2−/− mice often die of diabetic complications by 12 weeks of age, females IRS2−/− mice develop a milder form of diabetes and many live up to 6 months. The observation that female IRS2−/− mice eat more than controls led to the discovery that this molecule is critical for hypothalamic regulation of food intake.
The mean glycemic values are represented per group (n=3) pre-treatment (black bars) and post-treatment (gray bars) along with their standard deviations. […] The fasting serum insulin levels taken pre-treatment (black bars) and post-treatment (gray bars) were determined using a kit (Millipore), following the manufacturer's instructions. Mean values and standard deviations are presented for each group (n=3) (FIG. 12D).
Due to peripheral resistance to insulin, the IRS2−/− mice also develop hyperinsulinemia.

IRS2 knockout mice = conditions: 100 mg/kg/day, 4 weeks
Source text: Insulin receptor substrate 2 (IRS2) is a cytoplasmic signaling molecule that mediates effects of insulin, insulin-like growth factor 1, and other cytokines by acting as a molecular adaptor between diverse receptor tyrosine kinases and downstream effectors. Mice lacking IRS2 (e.g., IRS2 knockout mice) have a diabetic phenotype and increased serum leptin levels. Leptin is a hormone made by adipose cells that regulates appetite and inhibits hunger.
The levels of fasting serum leptin, at the beginning and at the end of the treatments, were determined with a kit (Sigma) following the instructions by the manufacturer.

clinical = conditions: both, human, in vivo, oral, 1240 mg, tmax, median [minimum-maximum], 1240 mg single administration without food
[2] = system: IRS2 knockout mice (IRS2-/-); conditions: 100 mg/kg/day, 8 weeks
Method: At the 8-week treatment time point, there were 6 mice in each treatment group. Adipose tissue was collected upon sacrifice and frozen in liquid N2. Lipidomics analysis of the tissue was then performed using HPLC/MS. […] Statistical differences between the experimental groups shown in FIG. 22 were assessed by Student's T test. P value of <0.01 is indicated by **.

GLUT4 = GLUT4 translocation (FIG. 19A)
[3] = system: IRS2 knockout mice (KO IRS2); assay: Body weight in IRS2 knockout mice; assay type: in vivo, mouse; conditions: 100 mg/kg/day, 8 weeks
Method: Body weight of the mice was measured prior to the onset of treatment, at 4 weeks after treatment, and at 8 weeks after treatment. There were 8 mice in each group at the pre-treatment and 4-week treatment time points. […] Statistical differences between the experimental groups shown in FIG. 20 were assessed by Student's T test. P value of <0.05 is indicated by *.

GPBP and AKT = GPBP and AKT (Homo sapiens, UniProt Q9Y5P4); conditions: 5 mM
Method: Two hundred nanograms of AS160 (Origene Technologies) was incubated either in the absence (−) or in the presence (+) of FLAG-GPBP (270 ng), AKT (Millipore) (200 ng) and SLN1 or SLN2 (5 mM) in phosphorylation solution (β-glycerophosphate 25 mM (pH 7.0), EDTA 0.5 mM, EGTA 0.5 mM, MgCl2 8 mM, MnCl2 5 mM, DTT 1 mM) without ATP for 10 min at RT, after which [γ-^32P] ATP (Perkin Elmer) (0.132 μM) and ATP (Sigma) (100 μM) were added. Reaction cocktails (25 μl) were incubated at 30° C. for 15 min, and stirred (350 rpm).

[4] = system: IRS2 knockout mice (KO IRS2); assay: Serum triglycerides in IRS2 knockout mice; assay type: in vivo, mouse; conditions: 100 mg/kg/day, 8 weeks, fasting
Method: as §1

GPBP, sequence (Q9Y5P4 whole entry): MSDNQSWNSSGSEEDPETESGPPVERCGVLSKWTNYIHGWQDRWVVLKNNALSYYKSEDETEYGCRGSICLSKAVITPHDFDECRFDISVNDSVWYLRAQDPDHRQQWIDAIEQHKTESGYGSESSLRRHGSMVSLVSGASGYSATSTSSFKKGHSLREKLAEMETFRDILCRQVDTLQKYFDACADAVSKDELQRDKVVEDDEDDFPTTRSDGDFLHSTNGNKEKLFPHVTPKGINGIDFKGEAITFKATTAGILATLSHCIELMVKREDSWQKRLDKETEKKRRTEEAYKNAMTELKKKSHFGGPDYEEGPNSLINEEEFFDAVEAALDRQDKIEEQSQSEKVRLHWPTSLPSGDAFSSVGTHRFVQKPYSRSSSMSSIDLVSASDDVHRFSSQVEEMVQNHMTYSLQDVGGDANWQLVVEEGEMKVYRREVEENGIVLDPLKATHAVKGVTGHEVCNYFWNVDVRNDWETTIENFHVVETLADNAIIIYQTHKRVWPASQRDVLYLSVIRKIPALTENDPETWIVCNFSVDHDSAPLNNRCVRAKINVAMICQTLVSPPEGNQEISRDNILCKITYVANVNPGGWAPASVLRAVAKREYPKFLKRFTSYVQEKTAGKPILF
GPBP and AKT, sequence (Q9Y5P4 whole entry): as above

In the case of `CN(C)C(=N)NC(=N)N` [Metformin glycinate, N,N-dimethylimidodicarbonimidic diamide glycinate], the “glycemia, end vs beginning” value (C57BL/6 mice; 100 mg/kg/day mixed with solid food, n=3) is reported as “significantly reduced glycemia”, the “extent of glycemia reduction compared to metformin hydrochloride” value (C57BL/6 mice; 100 mg/kg/day) is reported as “to a greater extent” and the “food intake compared to untreated mice” value (C57BL/6 mice; 100 mg/kg/day) is reported as “food intake was greater”. For the same molecule, the complexation constant [1] was 712±19, the “accumulation of IRβ on the cell membrane vs metformin hydrochloride” value (insulin receptor (IRβ)) was “significantly more accumulation” and the “Tmax, comparative analysis” value (620 mg BID vs metformin hydrochloride 1000 mg BID) was “statistically significant differences”. For the same molecule, the “bioequivalence (90% C.I. in magnitude and velocity)” value (620 mg against metformin hydrochloride 500 mg) was “within the theoretical ranges of bioequivalence”, the “pharmacokinetic parameters of test vs reference (metformin hydrochloride)” value (Stage B, multiple doses) was “similar” and the “serum triglycerides compared to untreated or SLN1-treated control mice” value (wild type controls (WT)) was “lower”. For the same molecule, the GPBP auto-phosphorylation activity (GPBP) was “inhibition of GPBP auto-phosphorylation activity”, the “glucose levels of myotube cultures (hyperglycemic levels)” value (C2C12 myotubes) was “maintained values at normoglycemic levels” and the fasting glycemia post-treatment (IRS2−/− (KO) mice; 100 mg/kg/day with food, 10-12 weeks old) was “significantly lower than those pre-treatments”. For the same molecule, the fasting insulin levels (IRS2−/− (KO) mice; 100 mg/kg/day) was “lowered the fasting insulin levels”, the “reduction of fasting serum leptin levels compared to metformin hydrochloride” value (IRS2 knockout mice) was “greater reduction of fasting serum leptin levels” and the “fasting serum leptin levels” value (IRS2 knockout mice; end vs beginning of treatment) was “reduced fasting serum leptin levels”. The Tmax (clinical) was 1.5 h, the “adipose tissue triglyceride 16:0 compared to control IRS2−/−” value [2] was “significantly lower” and the “adipose tissue triglyceride 18:1n-9c compared to control IRS2−/−” value [2] was “drastically reduced”. For the same molecule, the GLUT4 translocation (GLUT4) was “translocated GLUT4”, the “average body weight, post- vs pre-treatment” value [3] was “significantly lower after 8 weeks than before treatment” and the “GPBP and AKT cross activation” value (GPBP and AKT) was “counteracted GPBP and AKT cross activation”. The “serum triglycerides compared to untreated KO IRS2” value [4] was “lower”.
